As a reminder, the IC50 is the concentration that inhibits the measured activity by half. A low value points to higher potency. As usually defined, the Kd is the free concentration of one partner at which half of the binding sites on the other are occupied at equilibrium, for simple one-to-one binding. Read a high Kd as weaker binding.

The structures appear in SMILES notation.

In the experiment the target is Carbonic anhydrase 2 (Homo sapiens, UniProt P00918). The experiment in a line: Inhibition Assay. The note with it: pH 8.4. The method, then:
Inhibitory activity of the compounds for CAII was measured and IC50 values were calculated from independent triplicated experiments. Kd values were obtained by ITC analysis.
The compound `NS(=O)(=O)c1ccc(F)cc1` [4-Fuloro sulfonamide, C] had an IC50 of 203 nM and an equilibrium dissociation constant (Kd) of 435 nM.

Consider `NS(=O)(=O)c1ccc(N2CCN(Cc3ccncc3)CC2)cc1` [Piperazine moiety, 3], for which half-maximal inhibition (IC50) required 48 nM and binding was put at a Kd of 29 nM.

In the case of `NS(=O)(=O)c1ccc(N2CCNCC2)cc1` [Piperazine moiety, 4], the IC50 came out at 299 nM and the Kd stood at 426 nM.

Regarding `NS(=O)(=O)c1ccc(N2CCN(CCO)CC2)cc1` [Piperazine moiety, 5], the IC50 was found to be 137 nM and the Kd was found to be 208 nM.

The compound `NS(=O)(=O)c1ccc(N2CCN(C(=O)c3ccncc3)CC2)cc1` [Piperazine moiety, 6] registered an IC50 of 72 nM and a dissociation constant Kd of 100 nM.
